Laboratory results: ChEMBL document CHEMBL5727943, “Composition and methods for inhibiting mammalian sterile 20-like kinase 1” (2020)

Columns and labels:
[1] = biological target: T1, Serine/threonine-protein kinase 3 (Homo sapiens, UniProt Q13188); assay: (§1) MST1/MST2 Biochemical LanthaScreen Eu Kinase Binding Assay: MST1 and MST2 biochemical LanthaScreen Eu Kinase Binding Assay was based on the binding and displacement of kinase tracer to the kinase of interest. Compounds in 1000×DMSO stock solution was dispensed using automated dispensing system (Labcyte) to 384 well Corning Microplate at 15 nL, 5 uL of Kinase buffer A was added to each well. Plates were shaken and incubated for 1 min to ensure well dissolution of compounds.
T1 sequence (Q13188 whole entry): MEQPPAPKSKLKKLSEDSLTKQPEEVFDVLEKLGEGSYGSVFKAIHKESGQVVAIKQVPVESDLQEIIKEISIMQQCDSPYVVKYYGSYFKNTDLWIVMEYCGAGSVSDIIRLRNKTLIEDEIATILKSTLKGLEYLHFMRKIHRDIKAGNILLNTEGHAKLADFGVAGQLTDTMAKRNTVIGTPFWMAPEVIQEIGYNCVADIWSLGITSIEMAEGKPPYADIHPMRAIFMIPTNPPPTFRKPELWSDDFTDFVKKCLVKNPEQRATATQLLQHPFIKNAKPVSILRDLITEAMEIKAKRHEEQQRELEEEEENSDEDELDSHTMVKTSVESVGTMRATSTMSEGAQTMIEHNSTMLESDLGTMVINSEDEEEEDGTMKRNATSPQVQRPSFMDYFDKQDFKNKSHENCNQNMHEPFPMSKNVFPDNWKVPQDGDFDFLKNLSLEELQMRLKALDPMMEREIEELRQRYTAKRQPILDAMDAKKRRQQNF

[2] = biological target: T2, Serine/threonine-protein kinase 4 (Homo sapiens, UniProt Q13043); assay: as §1
T2 sequence (Q13043 whole entry): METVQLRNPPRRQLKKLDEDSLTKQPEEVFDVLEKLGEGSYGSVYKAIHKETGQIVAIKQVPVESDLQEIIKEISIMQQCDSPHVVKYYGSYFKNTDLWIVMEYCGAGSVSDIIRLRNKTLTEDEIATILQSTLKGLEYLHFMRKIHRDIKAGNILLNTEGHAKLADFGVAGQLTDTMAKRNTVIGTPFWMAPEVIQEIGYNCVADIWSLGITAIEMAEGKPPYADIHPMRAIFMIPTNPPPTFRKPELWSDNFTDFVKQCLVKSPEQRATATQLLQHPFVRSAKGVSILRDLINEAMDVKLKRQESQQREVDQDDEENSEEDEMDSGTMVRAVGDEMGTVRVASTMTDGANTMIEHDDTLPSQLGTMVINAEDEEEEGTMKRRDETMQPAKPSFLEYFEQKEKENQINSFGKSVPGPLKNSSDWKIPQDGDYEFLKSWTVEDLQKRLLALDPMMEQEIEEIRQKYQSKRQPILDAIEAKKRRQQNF

IC50 [1]: < 100 nM
IC50 [2]: < 100 nM
Compound: CCOc1cc2ncc(C#N)c(Nc3ccc(OCc4ncccc4C)cc3Cl)c2cc1NC(=O)/C=C/CN(C)C
